Measured values published in PubChem BioAssay (NCI).
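Values below derive from 48-hour exposures of cells grown in 96-well plates, with endpoints linearly interpolated between the two concentrations bracketing the appropriate inhibition level. TGI marks complete inhibition of growth.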

Key:
Experiment in all cases: growth of human tumour cells (NCI), 48 h
[1] = test system: 786-0 renal
[2] = test system: DU-145 prostate
[3] = test system: MCF7 breast
[4] = test system: MDA-MB-231 breast
[5] = test system: MDA-MB-435
[6] = test system: OVCAR-3 ovarian
[7] = test system: SF-295 CNS
[8] = test system: SK-MEL-5 melanoma
[9] = test system: SK-OV-3 ovarian
[10] = test system: SNB-19 CNS
[11] = test system: MALME-3M melanoma

SMILES | TGI [1] [µM] | TGI [2] [µM] | TGI [3] [µM] | TGI [4] [µM] | TGI [5] [µM] | TGI [6] [µM] | TGI [7] [µM] | TGI [8] [µM] | TGI [9] [µM] | TGI [10] [µM] | TGI [11] [µM]
CCOC(=O)CNC(=O)C(CCC(=O)N(C)O)NC(=O)CCC(N)C(=O)O (stereo not given) | > 100 | > 100 | > 100 | > 100 | > 100 | > 100 | > 100 | > 100 | > 100 | > 100 | –
COC(=O)C(Cc1c[nH]c2ccccc12)NC(=O)C(Cc1cnc[nH]1)NC(=O)C1CCC(=O)N1C(=O)OCc1ccccc1 (stereo not given) | > 100 | – | > 100 | – | – | – | – | > 100 | – | > 100 | > 100
Cc1nc(OCc2ccccc2)c2ncn(CCO)c2n1 | > 100 | > 100 | > 100 | > 100 | > 100 | > 100 | > 100 | > 100 | > 100 | > 100 | –
O=[N+]([O-])c1ncc(N(CCO)CCO)s1 | > 100 | > 100 | > 100 | > 100 | > 100 | > 100 | > 100 | – | > 100 | > 100 | 36.3
Cc1ccc2nc3ccccc3c(C3C4C(=O)N(c5ccc(F)cc5)C(=O)C4ON3C(C(N)=O)c3ccccc3)c2c1 (stereo not given) | > 100 | > 100 | 80.8 | > 100 | 99 | 71.6 | > 100 | – | > 100 | > 100 | 80.7
O=[N+]([O-])c1ccc(-c2csc(N=Nc3c(O)[nH]c4ccccc34)n2)cc1 | > 100 | > 100 | > 100 | > 100 | > 100 | > 100 | > 100 | > 100 | > 100 | > 100 | –
CC(C)(C)c1ccc2c(c1)OP1(Oc3c(Cl)cc(Cl)c4cccnc34)(O2)Oc2ccc(C(C)(C)C)cc2O1 | – | – | 17.3 | – | – | 13.3 | 32.1 | 22.1 | 16.5 | 22.8 | 24.9
S=P1(Sc2ccccc2)Oc2ccc3ccccc3c2-c2c(ccc3ccccc23)O1 | – | – | > 100 | – | – | > 100 | > 100 | > 100 | > 100 | > 100 | > 100
O=C1CCCCCCC2=C1C(Sc1ccccc1)CC2 (stereo not given) | 33 | – | – | – | – | – | > 100 | > 100 | > 100 | > 100 | > 100
O=C(O)/C=C/c1ccc(Oc2ccccc2C(=O)O)o1 | > 10 | > 10 | > 10 | > 10 | > 10 | – | > 10 | > 10 | > 10 | > 10 | > 10
CCCCSC1=N/C(=C\c2ccccc2O)C(=O)N1 | > 100 | > 100 | > 100 | > 100 | > 100 | > 100 | > 100 | – | > 100 | > 100 | > 100
COc1ccc(C2SCC(=O)N2c2ccc(-n3c(-c4ccccc4)nc4ccccc4c3=O)cc2)cc1 (stereo not given) | > 100 | > 100 | > 100 | > 100 | > 100 | > 100 | > 100 | > 100 | > 100 | > 100 | –
CCOC(=O)C12CCC(=O)N1N(C)c1ncccc1N2 (stereo not given) | > 100 | > 100 | > 100 | > 100 | > 100 | > 100 | > 100 | > 100 | > 100 | > 100 | –
NCC(=O)Nc1ccccc1 | > 100 | > 100 | – | > 100 | > 100 | > 100 | > 100 | > 100 | – | > 100 | > 100
CN1CCC2(CC1)SSC1(CCN(C)CC1)S2 | > 100 | – | – | > 100 | > 100 | – | > 100 | > 100 | > 100 | > 100 | –
Cc1ccc2c(c1)nc1n2C(c2c(F)cccc2F)SC1 (stereo not given) | > 100 | – | > 100 | > 100 | > 100 | > 100 | > 100 | – | > 100 | > 100 | 93.3
Cc1nc2c(c(N3CCN(C)CC3)n1)Cc1ccccc1-2 | > 100 | > 100 | > 100 | > 100 | > 100 | – | > 100 | > 100 | > 100 | 74.6 | > 100
O=C1C(Cl)=C(Cl)C(=O)C(CCNc2nccs2)=C1Cl | 45 | > 100 | > 100 | – | 42 | 49.8 | > 100 | 50.1 | > 100 | > 100 | 46.6
COC(=O)C1=CO[C@@H](C)[C@@H]2Cn3ccc4c5ccccc5nc-4c3C[C@H]12 | > 100 | – | – | – | – | > 100 | > 100 | > 100 | > 100 | > 100 | > 100
CC(=O)OCc1c(O)c2c([nH]c1=O)CCc1ccccc1-2 | 115 | – | – | – | – | 102 | 274 | 177 | > 350 | > 350 | > 35
CCCCN(CC)C(=O)C(=O)Cc1nc2ccc(C(=O)c3ccccc3)cc2[nH]c1=O | > 100 | – | – | – | – | > 100 | > 100 | > 100 | > 100 | > 100 | –
COc1c2c(c3c(c1OC)c(=O)c1ccccc1n3C)OCO2 | > 100 | > 100 | > 100 | > 100 | > 100 | > 100 | > 100 | > 100 | > 100 | > 100 | –
COC(=O)C1CCC(=O)N1C(c1ccc(OC)cc1)c1cc(OC)c(OC)c(OC)c1 (stereo not given) | > 100 | 0.771 | > 100 | 64.9 | 0.243 | 0.597 | 0.465 | 3.43 | > 100 | > 100 | –
